The values below come from patent US20250144067A1, “PERSONALIZED STARVATION THERAPY FOR CANCER” (Faeth Therapeutics, Inc., priority 2021, published 2025).

Structures can show the parent of a compound that is named as a salt.

In test [1] the test system is NCI-H292 lung cancer cells. Put plainly: FDA drug screening, complete media vs cholesterol-free media without statin (TABLE 1). In kind it is cell-based, human.
Test [2] has as its system NCI-H292 lung cancer cells. The experiment in a line: FDA drug screening, complete media vs cholesterol-free media with simvastatin (TABLE 2). It is filed as cell-based, human. The note with it: for Cholesterol-free media + simvastatin (0.04 μM) / Complete Media: NCI-H292 cells.
[3] abbreviates: Complete minus Cholesterol-free, >0 enhanced anti-cancer activity, about 0 neutral, <0 antagonist.
Where [4] appears, read: NCI-H292 cells, cholesterol-free media without statin, FDA drug library screen.
[5] abbreviates: NCI-H292 cells, complete media, FDA drug library screen.
Setting [6] is: drug in cholesterol-free media with simvastatin 0.04 μM.
[7] abbreviates: complete media vs cholesterol-free media + simvastatin (0.04 μM), >0 enhanced anti-cancer activity, about 0 neutral, <0 antagonist.
[8] abbreviates: NCI-H292 cells, cholesterol-free media without statin.
Setting [9] is: cholesterol-free media with simvastatin 0.04 μM, cell growth value in FDA drug screen.
Setting [10] is: complete media, cell growth value in FDA drug screen.
Setting [11] is: complete media minus cholesterol-free media + simvastatin, >0 enhanced anti-cancer activity, about 0 neutral, <0 antagonist.
[12] abbreviates: Complete minus Cholesterol-free, greater than 0 enhanced anti-cancer activity, about 0 neutral, below 0 antagonist.
Setting [13] is: NCI-H292 cells, FDA drug library screen, cholesterol-free media without statin.
Setting [14] is: NCI-H292 cells, FDA drug library screen, complete media.
Setting [15] is: FDA drug library screen, cholesterol-free media with simvastatin 0.04 μM.
Where [16] appears, read: FDA drug library screen, complete media.
[17] abbreviates: Complete minus Cholesterol-free, greater than 0 enhanced anti-cancer activity, about 0 neutral, below 0 antagonists.
[18] abbreviates: NCI-H292 cells in cholesterol-free media without statin.
[19] abbreviates: NCI-H292 cells in complete media.
[20] abbreviates: Complete minus Cholesterol-free, […].
Setting [21] is: cholesterol-free media with simvastatin 0.04 μM, […].
[22] abbreviates: complete media minus cholesterol-free media + simvastatin, […].
[23] abbreviates: FDA library drug in cholesterol-free media with simvastatin 0.04 μM.
The mark [24] stands for this setting: FDA library drug in complete media.
Setting [25] is: complete vs cholesterol-free media, greater than 0 enhanced anti-cancer activity, about 0 neutral, below 0 antagonists.

With `CCOc1nc2cccc(C(=O)O)c2n1Cc1ccc(-c2ccccc2-c2nnn[nH]2)cc1` [Candesartan], the values for the Difference in test [1] (setting [3]) and in test [2] (setting [7]) were 0.02 and −0.23, respectively. The same molecule returned a Cholesterol-free in test [1] (setting [4]) of 0.9494. In test [1] (setting [5]), the Complete worked out at 0.9741. For the same molecule, in test [2] (setting [6]), the “Cholesterol-free media + simvastatin (0.04 μM)” value was 1.101. Also, in test [2] (drug in complete media), the “Complete Media” value is 0.8684.
On to `O=C(O)CN(CCN(CC(=O)O)CC(=O)O)CC(=O)O`, for which the Difference in test [1] (setting [3]) is listed as −0.27; in test [2] (setting [11]), 0.08. Also, the Cholesterol-free in test [1] (setting [8]) is listed as 1.665. The same molecule yielded a Complete in test [1] (NCI-H292 cells, complete media) of 1.397. Moreover, the “Cholesterol-free media + simvastatin (0.04 μM)” value in test [2] (setting [9]) stood at 0.8557. In test [2] (setting [10]), the “Complete Media” value amounted to 0.9311.
For the molecule `Cc1oc(=O)oc1COC(=O)[C@@H]1N2C(=O)[C@@H](NC(=O)[C@H](N)c3ccccc3)[C@H]2SC1(C)C` [Lenampicillin (hydrochloride)], the results for the Difference in test [1] (setting [12]) and in test [2] (setting [7]) were −0.08 and −0.14, respectively. The molecule also gave a Cholesterol-free in test [1] (setting [13]) of 1.101. The Complete in test [1] (setting [14]) turned out to be 1.02. In test [2] (setting [15]), the “Cholesterol-free media + simvastatin (0.04 μM)” value is reported as 1.05. Also, the “Complete Media” value in test [2] (setting [16]) was 0.9118.
Regarding `CCC(=O)O[C@@H](O[P@](=O)(CCCCc1ccccc1)CC(=O)N1C[C@H](C2CCCCC2)C[C@H]1C(=O)O)C(C)C` [Fosinopril (sodium)], the figures for the Difference in test [1] (setting [17]) and in test [2] (setting [11]) were −0.52 and 0.29, respectively. Besides, the Cholesterol-free in test [1] (setting [18]) stood at 1.831. Besides, the Complete in test [1] (setting [19]) was found to be 1.313. In test [2] (setting [15]), the “Cholesterol-free media + simvastatin (0.04 μM)” value stood at 0.91. Also, the “Complete Media” value in test [2] (setting [16]) came out at 1.199.
Consider `Cl.Cl.OCCOCCN1CCN(C(c2ccccc2)c2ccccc2)CC1` [Decloxizine (dihydrochloride)], for which the Difference in test [1] (setting [20]) is listed as −0.22; in test [2] (setting [22]), 0.09. Moreover, the Cholesterol-free in test [1] (setting [8]) is 1.186. Moreover, in test [1] (NCI-H292 cells, complete media), the Complete stood at 0.9687. In addition, in test [2] (setting [21]), the “Cholesterol-free media + simvastatin (0.04 μM)” value is on record as 0.9553. For the same molecule, the “Complete Media” value in test [2] (complete media, […]) was found to be 1.042.
Consider `Cn1nnc(-c2ccc(-c3ccc(N4C[C@H](CO)OC4=O)cc3F)cn2)n1` [Tedizolid], for which the Difference is −0.10 in test [1] (setting [12]) and 0.07 in test [2] (setting [11]). The molecule further yielded a Cholesterol-free in test [1] (setting [13]) of 0.9116. This molecule also displayed a Complete in test [1] (setting [14]) of 0.8073. The “Cholesterol-free media + simvastatin (0.04 μM)” value in test [2] (setting [9]) was 1.119. Besides, in test [2] (setting [10]), the “Complete Media” value was determined as 1.184.
For `CC(=O)S[C@@H]1CC2=CC(=O)CC[C@]2(C)[C@H]2CC[C@@]3(C)[C@@H](CC[C@@]34CCC(=O)O4)[C@H]12` [Spironolactone], the Difference in test [1] (setting [3]) is listed as 0.03; in test [2] (setting [7]) it was −0.51. In addition, the Cholesterol-free in test [1] (setting [4]) was determined as 1.102. In test [1] (setting [5]), this molecule returned a Complete of 1.134. For the same molecule, in test [2] (setting [23]), the “Cholesterol-free media + simvastatin (0.04 μM)” value is 1.784. Also, the “Complete Media” value in test [2] (setting [24]) is reported as 1.272.
`CCCCN1C[C@H](O)[C@@H](O)[C@H](O)[C@H]1CO` [Miglustat (hydrochloride)]: the Difference is recorded as −0.51 in test [1] (setting [17]) and −0.10 in test [2] (setting [7]). In test [1] (setting [18]), the Cholesterol-free came to 1.836. The same molecule showed a Complete in test [1] (setting [19]) of 1.323. The “Cholesterol-free media + simvastatin (0.04 μM)” value in test [2] (setting [15]) was 0.8113. In addition, in test [2] (setting [16]), the “Complete Media” value worked out at 0.7082.
Turning to `CC1=C(C)C(=O)C(CCCCCCCCCC[P+](c2ccccc2)(c2ccccc2)c2ccccc2)=CC1=O.[Br-]` [Visomitin], the results for the Difference in test [1] (setting [20]) and in test [2] (setting [22]) were −0.06 and 0.02, respectively. In addition, the Cholesterol-free in test [1] (setting [4]) turned out to be 0.06935. In addition, the Complete in test [1] (setting [5]) stood at 0.01194. Also, the “Cholesterol-free media + simvastatin (0.04 μM)” value in test [2] (setting [21]) was found to be 0.1378. Besides, the “Complete Media” value in test [2] (complete media, […]) is on record as 0.1554.
As to `O=P(O)(O)C(Cl)(Cl)P(=O)(O)O` [Clodronic acid (disodium salt)], the figures for the Difference in test [1] (setting [3]) and in test [2] (setting [7]) were 0.00 and −0.81, respectively. The Cholesterol-free in test [1] (setting [4]) is on record as 0.9505. In test [1] (setting [5]), this molecule came in with a Complete of 0.955. In test [2] (setting [23]), the “Cholesterol-free media + simvastatin (0.04 μM)” value came to 1.883. In addition, the “Complete Media” value in test [2] (setting [24]) was found to be 1.075.
For `O=c1oc2ccccc2c(O)c1Cc1c(O)c2ccccc2oc1=O` [Dicoumarol], the Difference in test [1] (setting [17]) is reported as −0.93; in test [2] (setting [11]), 0.19. In test [1] (setting [18]), this molecule displayed a Cholesterol-free of 2.049. Also, the Complete in test [1] (setting [19]) is reported as 1.114. Also, the “Cholesterol-free media + simvastatin (0.04 μM)” value in test [2] (setting [15]) was determined as 0.8973. For the same molecule, the “Complete Media” value in test [2] (setting [16]) turned out to be 1.089.
As to `C#C[C@]1(O)CC[C@H]2[C@@H]3CCc4cc(OC)ccc4[C@H]3CC[C@@]21C` [Mestranol], the Difference in test [1] (setting [3]) was −0.06; in test [2] (setting [7]) it was −0.27. In addition, in test [1] (setting [4]), the Cholesterol-free was determined as 0.9912. This molecule also gave a Complete in test [1] (setting [5]) of 0.9277. Moreover, the “Cholesterol-free media + simvastatin (0.04 μM)” value in test [2] (setting [23]) was determined as 1.197. Further, in test [2] (setting [24]), the “Complete Media” value worked out at 0.9303.
In the case of Nafamostat (mesylate), in test [1] (setting [8]), the Cholesterol-free is given as 1.215. For the same molecule, the Complete in test [1] (NCI-H292 cells, complete media) was 0.8839. Further, the results for the Difference in test [1] (setting [25]) and in test [2] (setting [7]) were −0.33 and −0.25, respectively. In addition, in test [2] (setting [6]), the “Cholesterol-free media + simvastatin (0.04 μM)” value turned out to be 1.2. In addition, in test [2] (drug in complete media), the “Complete Media” value was determined as 0.9501.
Take `OCc1cc(C(O)CNCCCCCCOCCCCc2ccccc2)ccc1O` (stereo not drawn) [Salmeterol (xinafoate)]: the Cholesterol-free in test [1] (setting [8]) is recorded as 1.696. In addition, the Complete in test [1] (NCI-H292 cells, complete media) was 1.368. Moreover, the Difference is −0.33 in test [1] (setting [25]) and 0.25 in test [2] (setting [11]). Moreover, the “Cholesterol-free media + simvastatin (0.04 μM)” value in test [2] (setting [15]) is on record as 0.9341. In test [2] (setting [16]), the “Complete Media” value was determined as 1.186.
Regarding `COc1c(O)cc2c(c1O)[C@@H]1O[C@H](CO)[C@@H](O)[C@H](O)[C@H]1OC2=O` [Bergenin], the Difference in test [1] (setting [3]) is −0.21; in test [2] (setting [11]), 0.07. In addition, the Cholesterol-free in test [1] (setting [8]) was determined as 0.9949. The Complete in test [1] (NCI-H292 cells, complete media) is listed as 0.7827. In addition, in test [2] (setting [9]), the “Cholesterol-free media + simvastatin (0.04 μM)” value was found to be 0.6754. The “Complete Media” value in test [2] (setting [10]) was determined as 0.7494.
As to `CCCCCOC(=O)Nc1nc(=O)n([C@@H]2O[C@H](C)[C@@H](O)[C@H]2O)cc1F` [Capecitabine], the Difference was −0.20 in test [1] (setting [3]) and −0.59 in test [2] (setting [7]). For the same molecule, the Cholesterol-free in test [1] (setting [8]) is 1.138. In test [1] (NCI-H292 cells, complete media), this molecule came in with a Complete of 0.9364. Also, in test [2] (setting [23]), the “Cholesterol-free media + simvastatin (0.04 μM)” value was found to be 1.236. Besides, in test [2] (setting [24]), the “Complete Media” value is listed as 0.648.
In test [1] (setting [4]), `CC(=O)OCC(=O)[C@H]1CC[C@H]2[C@@H]3CCC4=CC(=O)CC[C@]4(C)[C@H]3CC[C@]12C` [Deoxycorticosterone acetate] yielded a Cholesterol-free of 0.7412. In test [1] (setting [5]), this molecule gave a Complete of 1.214. Also, the Difference in test [1] (complete vs cholesterol-free media, >0 enhanced anti-cancer activity, about 0 neutral, <0 antagonist) is 0.47; in test [2] (setting [7]), −0.09. For the same molecule, the “Cholesterol-free media + simvastatin (0.04 μM)” value in test [2] (setting [15]) worked out at 0.9825. Moreover, the “Complete Media” value in test [2] (setting [16]) is 0.8887.
For the molecule `CO[C@@H]1[C@H](OC(=O)/C=C/C=C/C=C/C=C/C(=O)O)CC[C@]2(CO2)[C@H]1[C@@]1(C)O[C@@H]1CC=C(C)C` [Fumagillin], the Difference in test [1] (setting [20]) is −0.08; in test [2] (complete media vs cholesterol-free media + simvastatin (0.04 μM), […]) it was −0.27. This molecule also yielded a Cholesterol-free in test [1] (setting [13]) of 0.6031. Moreover, the Complete in test [1] (setting [14]) is recorded as 0.519. In test [2] (setting [23]), the “Cholesterol-free media + simvastatin (0.04 μM)” value worked out at 1.348. In addition, the “Complete Media” value in test [2] (setting [24]) is 1.08.
